Experimental data taken from patent US9290485B2, “N-((6-amino-pyridin-3-yl)methyl)-heteroaryl-carboxamides” (NOVARTIS AG, priority 2010, dated 2016).

These compounds were tested against human plasma kallikrein (Homo sapiens (Human), UniProt P03952). Conditions: human plasma kallikrein 25 pM, substrate 0.5 uM, 1 hour pre-incubation at room temperature, read at t=60 min.
Chain of human plasma kallikrein (P03952 whole entry, looked up): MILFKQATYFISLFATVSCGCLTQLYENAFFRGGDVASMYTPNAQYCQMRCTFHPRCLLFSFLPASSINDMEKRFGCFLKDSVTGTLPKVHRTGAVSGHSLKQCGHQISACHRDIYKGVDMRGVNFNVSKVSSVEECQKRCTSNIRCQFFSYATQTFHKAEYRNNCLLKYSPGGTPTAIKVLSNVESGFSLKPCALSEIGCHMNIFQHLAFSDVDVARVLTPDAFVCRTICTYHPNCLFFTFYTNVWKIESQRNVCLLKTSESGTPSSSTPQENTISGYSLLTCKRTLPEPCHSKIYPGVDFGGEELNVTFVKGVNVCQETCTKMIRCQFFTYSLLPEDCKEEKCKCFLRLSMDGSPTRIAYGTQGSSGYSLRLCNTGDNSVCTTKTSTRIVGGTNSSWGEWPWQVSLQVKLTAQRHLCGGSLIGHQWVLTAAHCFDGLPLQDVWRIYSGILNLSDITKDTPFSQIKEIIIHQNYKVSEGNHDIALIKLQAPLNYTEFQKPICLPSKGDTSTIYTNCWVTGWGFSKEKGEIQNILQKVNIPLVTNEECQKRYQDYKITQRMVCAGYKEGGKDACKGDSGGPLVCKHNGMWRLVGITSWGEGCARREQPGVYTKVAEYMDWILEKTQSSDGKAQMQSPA
Chain of human plasma kallikrein (P03952 whole entry partner, looked up): as the sequence (P03952 whole entry, looked up) above
With `Cc1cc(N)nc(C)c1CNC(=O)c1cnn(Cc2ccc(Cn3cccn3)cc2)c1` [Example 145, 1-(4-((1H-pyrazol-1-yl)methyl)benzyl)-N-((6-amino-2,4-dimethylpyridin-3-yl)methyl)-1H-pyrazole-4-carboxamide] the IC50 was 0.2 nM.
For `Cc1cnn(Cc2ccc(Cn3cc(C(=O)NCc4c(C)cc(N)nc4C)cn3)cc2)c1` [Example 146, N-((6-amino-2,4-dimethylpyridin-3-yl)methyl)-1-(4-((4-methyl-1H-pyrazol-1-yl)methyl)benzyl)-1H-pyrazole-4-carboxamide], the IC50 was 0.04 nM.
Work on `Cc1cc(C)n(Cc2ccc(Cn3cc(C(=O)NCc4c(C)cc(N)nc4C)nn3)cc2)n1` [Example 148, N-((6-amino-2,4-dimethylpyridin-3-yl)methyl)-1-(4-((3,5-dimethyl-1H-pyrazol-1-yl)methyl)benzyl)-1H-1,2,3-triazole-4-carboxamide] yielded an IC50 of 0.03 nM.
In the case of `Cc1nc(N)cc(OCC(=O)C(C)(C)C)c1CNC(=O)c1cnn(Cc2ccc3ccccc3c2)c1` [Example 149, N-((6-amino-4-(3,3-dimethyl-2-oxobutoxy)-2-methylpyridin-3yl)methyl)-1-(naphthalen-2-ylmethyl)-1H-pyrazole-4-carboxamide], the IC50 is reported as 7.8 nM.
In the case of `COCCN1CCCc2ccc(Cn3cc(C(=O)NCc4c(C)cc(N)nc4C)cn3)cc21` [Example 150, N-((6-Amino-2,4-dimethylpyridin-3-yl)methyl)-1-((1-(2-methoxyethyl)-1,2,3,4-tetrahydroquinolin-7-yl)methyl)-1H-pyrazole-4-carboxamide], the IC50 is reported as 10 nM.
Compound `Cc1cc(N)nc(C)c1CNC(=O)c1cnn(Cc2ccc3c(c2)N(C)C(=O)CO3)c1` [Example 151, N-((6-Amino-2,4-dimethylpyridin-3-yl)methyl)-1-((4-methyl-3-oxo-3,4-dihydro-2H-benzo[b][1,4]oxazin-6-yl)methyl)-1H-pyrazole-4-carboxamide] has an IC50 of 13 nM.
`Cc1cc(N)nc(C)c1CNC(=O)c1cnn(Cc2ccc3c(c2)N(C)CCC3)c1` [Example 152, N-((6-Amino-2,4-dimethylpyridin-3-yl)methyl)-1-((1-methyl-1,2,3,4-tetrahydroquinolin-7-yl)methyl)-1H-pyrazole-4-carboxamide] was tested, and the IC50 was 4 nM.
Work on `Cc1ccc2cc(Cn3cc(C(=O)NCc4c(C)cc(N)nc4C)cn3)ccc2n1` [Example 154, N-((6-amino-2,4-dimethylpyridin-3-yl)methyl)-1-((2-methylquinolin-6-yl)methyl)-1H-pyrazole-4-carboxamide] yielded an IC50 of 2 nM.
With `Cc1cc(N)nc(C)c1CNC(=O)c1cnn(Cc2cnc3ccccc3c2)c1` [Example 155, N-((6-amino-2,4-dimethylpyridin-3-yl)methyl)-1-(quinolin-3-ylmethyl)-1H-pyrazole-4-carboxamide] the IC50 was 3 nM.
`Cc1ccc2cc(Cn3cc(C(=O)NCc4ccc(N)nc4C)cn3)ccc2n1` [Example 159, N-((6-amino-2-methylpyridin-3-yl)methyl)-1-((2-methylquinolin-6-yl)methyl)-1H-pyrazole-4-carboxamide] showed an IC50 of 7 nM.
With `Cc1nc(N)ccc1CNC(=O)c1cnn(Cc2cc(C(F)(F)F)c3cc(F)ccc3n2)c1` [Example 160, N-((6-amino-2-methylpyridin-3-yl)methyl)-1-((6-fluoro-4-(trifluoromethyl)quinolin-2-yl)methyl)-1H-pyrazole-4-carboxamide] the IC50 was 20 nM.
`Cc1cc(C)c2cc(Cn3cc(C(=O)NCc4ccc(N)nc4C)cn3)c(C)nc2c1` [Example 161, N-((6-amino-2-methylpyridin-3-yl)methyl)-1-((2,5,7-trimethylquinolin-3-yl)methyl)-1H-pyrazole-4-carboxamide] gave an IC50 of 4 nM.
Compound `Cc1cc(N)nc(C)c1CNC(=O)c1cnn(Cc2cc(C(F)(F)F)c3cc(F)ccc3n2)c1` [Example 162, N-((6-amino-2,4-dimethylpyridin-3-yl)methyl)-1-((6-fluoro-4-(trifluoromethyl)quinolin-2-yl)methyl)-1H-pyrazole-4-carboxamide] has an IC50 of 5 nM.
